This is an account of results in patent publication US20250326771A1, “PIPERAZINE DERIVATIVES USEFUL IN HIV THERAPY” (VIIV HEALTHCARE COMPANY, priority 2022, published 2025).

Molecules are shown by their SMILES.

For assay [1], the target named is cIAP2-BIR2 (Homo sapiens (Human), UniProt Q13489). Kind of assay: BIR binding assay (FRET competition), cIAP2 BIR2. An outline of the steps:
(§1)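 Compounds tested as 15-point, 3-fold series displacing 200 nM AlexaFluor647-labelled SMAC peptide from His-tagged BIR domain (cIAP1-BIR3 50 nM; cIAP1-BIR2 and cIAP2-BIR2 325 nM; XIAP-BIR3 100 nM), pH 7.4, 60 min. Eu-W1024 (2 nM) added 30 min; emission ratio fitted for IC50.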

Assay [2] deals with cIAP2-BIR3 (Homo sapiens (Human), UniProt Q13489). Kind of assay: BIR binding assay (FRET competition), cIAP2 BIR3. The following applies: for cIAP2 BIR3 vs BIR2 separation window: fold separation (FS) for cIAP2.
Assay [3] addresses Jurkat HIV-luciferase clones. Nature of the assay: Jurkat latency reversal assay. As to conditions: Jurkat latency reversal assay potency; for EC50: Homo sapiens, 48 h, read-out: Jurkat pEC50 (converted). Format: cell-based. The essentials:
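Three pooled Jurkat reporter clones, each with one or two integrated HIV-luciferase proviruses, 5,000 cells/well; duplicate 14-point titrations starting at 10 μM; 48 h, 37° C, then Steady-Glo luminescence; four-parameter logistic analysis yields EC50 and percent maximal activation against DMSO vehicle.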

Assay [4] concerns the target XIAP-BIR3 (Homo sapiens (Human), UniProt P98170). Kind of assay: BIR binding assay (FRET competition), XIAP BIR3. An outline of the steps: as §1
In assay [5] the target is cIAP1-BIR3 (Homo sapiens (Human), UniProt Q13490). Nature of the assay: BIR binding assay (FRET competition), cIAP1 BIR3. As to conditions: for cIAP1 BIR3 vs BIR2 separation window: fold separation (FS) for cIAP1. An outline of the steps:
as §1

The target of assay [6] is cIAP1-BIR2 (Homo sapiens (Human), UniProt Q13490). Nature of the assay: BIR binding assay (FRET competition), cIAP1 BIR2. An outline of the steps: as §1
Chain of cIAP1-BIR2 (Q13490 173-257): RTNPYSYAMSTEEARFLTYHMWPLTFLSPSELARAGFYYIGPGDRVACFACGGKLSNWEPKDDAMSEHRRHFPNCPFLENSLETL

Chain of cIAP1-BIR3 (Q13490 253-363): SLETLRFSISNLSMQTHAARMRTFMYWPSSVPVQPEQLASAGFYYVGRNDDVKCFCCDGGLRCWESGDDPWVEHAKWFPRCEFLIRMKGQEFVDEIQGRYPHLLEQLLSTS
Chain of cIAP2-BIR3 (Q13489 238-349): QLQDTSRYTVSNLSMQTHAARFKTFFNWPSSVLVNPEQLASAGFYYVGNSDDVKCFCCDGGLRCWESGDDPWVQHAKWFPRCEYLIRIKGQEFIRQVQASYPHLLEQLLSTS
Chain of XIAP-BIR3 (P98170 241-356): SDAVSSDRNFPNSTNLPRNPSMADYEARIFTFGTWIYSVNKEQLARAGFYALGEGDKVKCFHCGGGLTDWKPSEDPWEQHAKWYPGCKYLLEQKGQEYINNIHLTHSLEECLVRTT
Chain of cIAP2-BIR2 (Q13489 158-242): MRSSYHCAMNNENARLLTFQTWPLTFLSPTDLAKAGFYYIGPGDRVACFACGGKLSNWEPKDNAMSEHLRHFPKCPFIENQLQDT

As for `C[C@@H]1CN(CC(=O)N2CC(C)(C)c3[nH]c(=O)c(Cc4ccc(F)cc4)cc32)[C@@H](CN2CCO[C@H](COc3ccc(Oc4ccc(OC[C@@H]5CN(C[C@H]6CN[C@H](C)CN6CC(=O)N6CC(C)(C)c7[nH]c(=O)c(Cc8ccc(F)cc8)cc76)CCO5)cc4)cc3)C2)CN1` [Example 55, 1,1′-(2,2′-((3R,3′R,6R,6′R)-(((2S,2'S)-(((oxybis(4,1-phenylene))bis(oxy))bis(methylene))bis(morpholine-2,4-diyl))bis(methylene))bis(3-methylpiperazine-6,1-diyl))bis(acetyl))bis(6-(4-fluorobenzyl)-3,3-dimethyl-1,2,3,4-tetrahydro-5H-pyrrolo[3,2-b]pyridin-5-one)], the “cIAP2 BIR2 (pIC50)” value in assay [1] (FRET competition binding) is recorded as “+ (4.29<pIC50<=5.00)”. The “cIAP2 BIR3 (pIC50)” value in assay [2] (FRET competition binding) was “+++ (8.10>pIC50>=7.80)”. In addition, the “cIAP2 BIR3 vs BIR2 separation window” value in assay [2] was “++++ (FS>10,000)”. In addition, the “Jurkat pEC50” value in assay [3] is “++++ (9.31>pEC50>=7.90)”. Further, in assay [4] (FRET competition binding), the “XIAP BIR3 (pIC50)” value is reported as “++ (7.80>pIC50>=7.50)”. For the same molecule, in assay [5] (FRET competition binding), the “cIAP1 BIR3 (pIC50)” value is on record as “+ (7.50>pIC50>=6.30)”. The “cIAP1 BIR3 vs BIR2 separation window” value in assay [5] is on record as “++++ (FS>10,000)”. In addition, in assay [6] (FRET competition binding), the “cIAP1 BIR2 (pIC50)” value is on record as “+ (4.29<pIC50<=5.00)”.
The IC50 is the concentration that inhibits the measured activity by half. A low value points to greater potency in that assay. Consider `C[C@@H]1CN(CC(=O)N2CC(C)(C)c3[nH]c(=O)c(Cc4ccc(F)cc4)cc32)[C@@H](CN2CCO[C@H](COc3ccc(C(=O)C(=O)c4ccc(OC[C@@H]5CN(C[C@H]6CN[C@H](C)CN6CC(=O)N6CC(C)(C)c7[nH]c(=O)c(Cc8ccc(F)cc8)cc76)CCO5)cc4)cc3)C2)CN1` [Example 59, 1,2-bis(4-(((S)-4-(((2R,5R)-1-(2-(6-(4-fluorobenzyl)-3,3-dimethyl-5-oxo-2,3,4,5-tetrahydro-1H-pyrrolo[3,2-b]pyridin-1-yl)-2-oxoethyl)-5-methylpiperazin-2-1)methyl)morpholin-2-yl)methoxy)phenyl)ethane-1,2-dione], for which the IC50 in assay [1] fell in the range of 3160 to 10000 nM; in assay [2], 7.94 to 15.8 nM; in assay [4] it was 15.8 to 31.6 nM; in assay [5], 15.8 to 31.6 nM; in assay [6] it was 3160 to 10000 nM. Further, the “cIAP2 BIR3 vs BIR2 separation window” value in assay [2] is reported as “+++ (10,000>FS>1,000)”. In addition, in assay [3], the EC50 is 0.49 to 12.6 nM. Besides, the “cIAP1 BIR3 vs BIR2 separation window” value in assay [5] is recorded as “+++ (10,000>FS>1,000)”.
Turning to `C[C@@H]1CN(CC(=O)N2CC(C)(C)c3[nH]c(=O)c(Cc4ccc(F)cc4)cc32)[C@@H](CN2CCO[C@H](COCCCCCCOC[C@@H]3CN(C[C@H]4CN[C@H](C)CN4CC(=O)N4CC(C)(C)c5[nH]c(=O)c(Cc6ccc(F)cc6)cc54)CCO3)C2)CN1` [Example 64, 1,1′-(2,2′-((3R,3′R,6R,6′R)-(((2S,2'S)-((hexane-1,6-diylbis(oxy))bis(methylene))bis(morpholine-2,4-diyl))bis(methylene))bis(3-methylpiperazine-6,1-diyl))bis(acetyl))bis(6-(4-fluorobenzyl)-3,3-dimethyl-1,2,3,4-tetrahydro-5H-pyrrolo[3,2-b]pyridin-5-one)], the IC50 in assay [1] was in the range of 10000 to 51300 nM; in assay [2], 1.38 to 7.94 nM; in assay [4] it was 7.94 to 15.8 nM; in assay [5], 7.94 to 15.8 nM; in assay [6] it was 10000 to 51300 nM. Besides, the EC50 in assay [3] was 0.49 to 12.6 nM.
`C[C@@H]1CN(CC(=O)N2CC(C)(C)c3[nH]c(=O)c(Cc4ccc(F)cc4)cc32)[C@@H](CN2CCO[C@H](COc3ccccc3-c3ccccc3OC[C@@H]3CN(C[C@H]4CN[C@H](C)CN4CC(=O)N4CC(C)(C)c5[nH]c(=O)c(Cc6ccc(F)cc6)cc54)CCO3)C2)CN1` [Example 67, 1,1′-(2,2′-((3R,3′R,6R,6′R)-(((2S,2'S)—(([1,1′-biphenyl]-2,2′-diylbis(oxy))bis(methylene))bis(morpholine-2,4-diyl))bis(methylene))bis(3-methylpiperazine-6,1-diyl))bis(acetyl))bis(6-(4-fluorobenzyl)-3,3-dimethyl-1,2,3,4-tetrahydro-5H-pyrrolo[3,2-b]pyridin-5-one)]: the IC50 in assay [1] lay within 3160 to 10000 nM; in assay [2], 7.94 to 15.8 nM; in assay [4], 7.94 to 15.8 nM; in assay [5], 7.94 to 15.8 nM; in assay [6] it was 1000 to 3160 nM. Also, in assay [3], the EC50 was 0.49 to 12.6 nM.
In the case of `C[C@@H]1CN(CC(=O)N2CC(C)(C)c3[nH]c(=O)c(Cc4ccc(F)cc4)cc32)[C@@H](CN2CCO[C@H](COc3cc(F)cc(OC[C@@H]4CN(C[C@H]5CN[C@H](C)CN5CC(=O)N5CC(C)(C)c6[nH]c(=O)c(Cc7ccc(F)cc7)cc65)CCO4)c3)C2)CN1` [Example 73, 1,1′-(2,2′-((3R,3′R,6R,6′R)-(((2S,2'S)-(((5-fluoro-1,3-phenylene)bis(oxy))bis(methylene))bis(morpholine-2,4-diyl))bis(methylene))bis(3-methylpiperazine-6,1-diyl))bis(acetyl))bis(6-(4-fluorobenzyl)-3,3-dimethyl-1,2,3,4-tetrahydro-5H-pyrrolo[3,2-b]pyridin-5-one)], the half-inhibitory concentration (IC50) in assay [1] was 3160 to 10000 nM; in assay [2] it was 1.38 to 7.94 nM; in assay [4], 15.8 to 31.6 nM; in assay [5] it was 7.94 to 15.8 nM; in assay [6], 3160 to 10000 nM. Besides, in assay [2], the “cIAP2 BIR3 vs BIR2 separation window” value is recorded as “+++ (10,000>FS>1,000)”. Besides, the EC50 in assay [3] was 0.49 to 12.6 nM. For the same molecule, the “cIAP1 BIR3 vs BIR2 separation window” value in assay [5] was “+++ (10,000>FS>1,000)”.
Turning to `C[C@@H]1CN(CC(=O)N2CC(C)(C)c3[nH]c(=O)c(Cc4ccc(F)cc4)cc32)[C@@H](CN2CCO[C@H](COc3ccc(F)c(OC[C@@H]4CN(C[C@H]5CN[C@H](C)CN5CC(=O)N5CC(C)(C)c6[nH]c(=O)c(Cc7ccc(F)cc7)cc65)CCO4)c3F)C2)CN1` [Example 74, 1,1′-(2,2′-((3R,3′R,6R,6′R)-(((2S,2'S)-(((2,4-difluoro-1,3-phenylene)bis(oxy))bis(methylene))bis(morpholine-2,4-diyl))bis(methylene))bis(3-methylpiperazine-6,1-diyl))bis(acetyl))bis(6-(4-fluorobenzyl)-3,3-dimethyl-1,2,3,4-tetrahydro-5H-pyrrolo[3,2-b]pyridin-5-one)], the IC50 in assay [1] fell in the range of 1000 to 3160 nM; in assay [2], 1.38 to 7.94 nM; in assay [4], 1.38 to 7.94 nM; in assay [5], 1.38 to 7.94 nM; in assay [6], 1000 to 3160 nM. Further, the “cIAP2 BIR3 vs BIR2 separation window” value in assay [2] is “+++ (10,000>FS>1,000)”. Further, the EC50 in assay [3] is 0.49 to 12.6 nM. In addition, the “cIAP1 BIR3 vs BIR2 separation window” value in assay [5] is “+++ (10,000>FS>1,000)”.
Consider `C[C@@H]1CN(CC(=O)N2CC(C)(C)c3[nH]c(=O)c(Cc4ccc(F)cc4)cc32)[C@@H](CN2CCO[C@H](COc3cc(C#N)cc(OC[C@@H]4CN(C[C@H]5CN[C@H](C)CN5CC(=O)N5CC(C)(C)c6[nH]c(=O)c(Cc7ccc(F)cc7)cc65)CCO4)c3)C2)CN1` [Example 76, 3,5-bis(((S)-4-(((2R,5R)-1-(2-(6-(4-fluorobenzyl)-3,3-dimethyl-5-oxo-2,3,4,5-tetrahydro-1H-pyrrolo[3,2-b]pyridin-1-yl)-2-oxoethyl)-5-methylpiperazin-2-yl)methyl)morpholin-2-yl)methoxy)benzonitrile], for which the concentration for half-maximal inhibition (IC50) in assay [1] was 1000 to 3160 nM; in assay [2], 1.38 to 7.94 nM; in assay [4], 15.8 to 31.6 nM; in assay [5] it was 7.94 to 15.8 nM; in assay [6] it was 3160 to 10000 nM. The “cIAP2 BIR3 vs BIR2 separation window” value in assay [2] is on record as “+++ (10,000>FS>1,000)”. In addition, in assay [3], the EC50 is 0.49 to 12.6 nM. Besides, the “cIAP1 BIR3 vs BIR2 separation window” value in assay [5] is “+++ (10,000>FS>1,000)”.
Take `C[C@@H]1CN(CC(=O)N2CC(C)(C)c3[nH]c(=O)c(Cc4ccc(F)cc4)cc32)[C@@H](CN2CCO[C@H](COCCCCCOC[C@@H]3CN(C[C@H]4CN[C@H](C)CN4CC(=O)N4CC(C)(C)c5[nH]c(=O)c(Cc6ccc(F)cc6)cc54)CCO3)C2)CN1` [Example 82, 1,1′-(2,2′-((3R,3′R,6R,6′R)-(((2S,2'S)-((pentane-1,5-diylbis(oxy))bis(methylene))bis(morpholine-2,4-diyl))bis(methylene))bis(3-methylpiperazine-6,1-diyl))bis(acetyl))bis(6-(4-fluorobenzyl)-3,3-dimethyl-1,2,3,4-tetrahydro-5H-pyrrolo[3,2-b]pyridin-5-one)]: the half-maximal inhibitory concentration (IC50) in assay [1] lay in the range of 1000 to 3160 nM; in assay [2] it was 15.8 to 31.6 nM; in assay [4] it was 31.6 to 501 nM; in assay [5], 15.8 to 31.6 nM; in assay [6], 10000 to 51300 nM. Besides, the “cIAP2 BIR3 vs BIR2 separation window” value in assay [2] is “+++ (10,000>FS>1,000)”. The EC50 in assay [3] is 0.49 to 12.6 nM. For the same molecule, the “cIAP1 BIR3 vs BIR2 separation window” value in assay [5] is given as “++++ (FS>10,000)”.
Regarding `C[C@@H]1CN(CC(=O)N2CC(C)(C)c3[nH]c(=O)c(Cc4ccc(F)cc4)cc32)[C@@H](CN2CCO[C@H](COCCOCCOC[C@@H]3CN(C[C@H]4CN[C@H](C)CN4CC(=O)N4CC(C)(C)c5[nH]c(=O)c(Cc6ccc(F)cc6)cc54)CCO3)C2)CN1` [Example 83, 1,1′-(2,2′-((3R,3′R,6R,6′R)-(((2S,2'S)-(((oxybis(ethane-2,1-diyl))bis(oxy))bis(methylene))bis(morpholine-2,4-diyl))bis(methylene))bis(3-methylpiperazine-6,1-diyl))bis(acetyl))bis(6-(4-fluorobenzyl)-3,3-dimethyl-1,2,3,4-tetrahydro-5H-pyrrolo[3,2-b]pyridin-5-one)], the 50% inhibitory concentration (IC50) was in the range of 3160 to 10000 nM in assay [1]; 15.8 to 31.6 nM in assay [2]; 15.8 to 31.6 nM in assay [4]; 15.8 to 31.6 nM in assay [5]; 3160 to 10000 nM in assay [6]. For the same molecule, the “cIAP2 BIR3 vs BIR2 separation window” value in assay [2] is listed as “+++ (10,000>FS>1,000)”. In addition, the EC50 in assay [3] was 12.6 to 63.1 nM. Moreover, the “cIAP1 BIR3 vs BIR2 separation window” value in assay [5] was “+++ (10,000>FS>1,000)”.
